According to patent publication US10736912B2, “Compositions containing PUFA and/or uridine and methods of use thereof” (MASSACHUSETTS INSTITUE OF TECHNOLOGY, priority 2005, dated 2020):

What was measured:
[1] = tested on: PC-12 cells; experiment: 14C-choline incorporation into phospholipids in PC-12 cells; type: cell-based
Description: PC-12 cells were maintained in Dulbecco's modified Eagle's medium (DMEM)+10% fetal bovine serum (FBS). For experiments, cells were grown in quintuplicate collagen-coated 35 millimeter (mm) dishes. Cells were incubated for 18 hours (hr) in serum-free DMEM containing 28 μM choline+/−5 micromolar (μM) of DHA, oleic acid, or palmitic acid. Cells were then labeled for 2.5 hr with 0.5 microcurie (μCi)/ml ^14C-choline in serum-free DMEM containing 10-micromolar (μM) choline.
Cells were homogenized in 100 volumes of ice-cold deionized water using a tissue degrader (Polytron PT 10-35, Kinematica AG, Switzerland); 1 ml of aliquots were then mixed with 3 ml of chloroform+methanol mixture (2:1 v/v) and vortexed vigorously for 30 seconds. After cooling for 1 h on ice, the mixture was mixed sequentially with 3 ml of chloroform+methanol mixture (2:1 v/v) and 1 ml of ice-cold deionized water. The mixture was vortexed vigorously and allowed to stand overnight in the cold room (18 h). The organic (lower) and aqueous (upper) phases of the mixtures were separated by centrifugation (10 min at 4° C.; 1000 g). An aliquot (2 ml) of the upper phase was used for determination of CDP-Choline (see below), and 0.1-0.4 ml aliquots of the lower phase were dried under vacuum for phospholipid analysis. Residues of 0.1 ml aliquots of the lower phase were assayed for total phospholipid content by measuring phosphorus. Residues of 0.4 ml aliquots of the lower phase were reconstituted in 40 μl methanol and subjected to thin-layer chromatography using silica G plates (Adsorbosil Plus-1®, Alltech), and a system consisting of chloroform/ethanol/triethylamine/water (30:34:30:8) as the mobile phase. Phospholipid standards were used to identify the corresponding bands under UV light after the plates were sprayed with 0.1% diphenylhexatriene in petroleum ether. Bands for individual phospholipid classes (PC, PE, SM, PS and PI) were scraped off the plates and extracted into 1 ml of methanol; dried under vacuum; and assayed for phosphorus content. Total phosphorus was determined by comparison with standard curves by using KH2PO4 run with each assay. […] Absorbance was measured spectrophotometrically at 820 nm. Phospholipid mass was determined by multiplying the phosphorus content by 25.
In order to assess the effect of omega-3 fatty acids on phospholipid synthesis, PC-12 cells were incubated with ^14C-labeled choline, following an 18-hour pre-incubation with or without DHA. Incorporation of label into phospholipids was then measured. […]
To further characterize the stimulation of phospholipid synthesis by omega-3 fatty acids, PC-12 cells were pre-treated with different doses of DHA and exposed to labeled choline as described in Example 1, then incorporation of ^14C-label into phospholipids was measured. […]

[2] = tested on: brain phospholipid levels; experiment: Brain phospholipid levels in gerbils given UMP diet and/or PUFA by gavage; type: in vivo, gerbil
Description: Cells were homogenized in 100 volumes of ice-cold deionized water using a tissue degrader (Polytron PT 10-35, Kinematica AG, Switzerland); 1 ml of aliquots were then mixed with 3 ml of chloroform+methanol mixture (2:1 v/v) and vortexed vigorously for 30 seconds. After cooling for 1 h on ice, the mixture was mixed sequentially with 3 ml of chloroform+methanol mixture (2:1 v/v) and 1 ml of ice-cold deionized water. The mixture was vortexed vigorously and allowed to stand overnight in the cold room (18 h). The organic (lower) and aqueous (upper) phases of the mixtures were separated by centrifugation (10 min at 4° C.; 1000 g). An aliquot (2 ml) of the upper phase was used for determination of CDP-Choline (see below), and 0.1-0.4 ml aliquots of the lower phase were dried under vacuum for phospholipid analysis. Residues of 0.1 ml aliquots of the lower phase were assayed for total phospholipid content by measuring phosphorus. Residues of 0.4 ml aliquots of the lower phase were reconstituted in 40 μl methanol and subjected to thin-layer chromatography using silica G plates (Adsorbosil Plus-1®, Alltech), and a system consisting of chloroform/ethanol/triethylamine/water (30:34:30:8) as the mobile phase. Phospholipid standards were used to identify the corresponding bands under UV light after the plates were sprayed with 0.1% diphenylhexatriene in petroleum ether. Bands for individual phospholipid classes (PC, PE, SM, PS and PI) were scraped off the plates and extracted into 1 ml of methanol; dried under vacuum; and assayed for phosphorus content. Total phosphorus was determined by comparison with standard curves by using KH2PO4 run with each assay. To each sample was added 0.5 ml of 4.5% HclO4/27% H2SO4 and tubes were heated at 180° C. for 3 h. After cooling to room temperature, 5 ml of the color reagent (a 10:1 dilution of solutions containing 2.5 mg/ml ammonium molybdate, 8.2 mg/ml sodium acetate and 100 mg/ml ascorbic acid respectively) was added and the tubes were incubated for 2 h, 37° C. Absorbance was measured spectrophotometrically at 820 nm. Phospholipid mass was determined by multiplying the phosphorus content by 25.
Control standard diet (Table 4) consisted of Teklad Global 16% protein rodent diet (Harlan Teklad, Madison, Wis.), which contained 0.1% choline chloride (CC), corresponding to a daily dose of 50 mg/kg/day. UMP was provided as 0.5% UMP·2Na^+ weight/weight, added to the control diet, also prepared by Harlan Teklad, corresponding to 240 mg/kg/day UMP. DHA was administered as 300 mg/kg/day in 200 microliter (mcL)/day 5% Arabic Gum solution, while groups not receiving DHA were administered vehicle (5% Arabic Gum) alone. DHA was provided by Nu-Chek Prep (Elysian, Minn.) and UMP by Numico (Wagenigen, NL).
Gerbils were anesthetized with ketamine and xylazine (80 and 10 mg/kg bwt, i.p.) and sacrificed by immersing the head into liquid nitrogen for 2 min, followed by decapitation. Brains were immediately and quickly (30 seconds) removed using a bone rongeur and stored at −80° C.
Frozen brain hemispheres were weighed and homogenized in 100 volumes of ice-cold deionized water using a tissue degrader (Polytron PT 10-35, Kinematica AG, Switzerland), then analyzed as described in Example 1.
Protein in whole brain homogenate sample was measured for using bicinchoninic acid reagent (Perkin Elmer, Norwalk, Conn., USA). DNA was measured by measuring 460 nm emission of samples on a fluorometer in the presence of bisbenzimidizole, a fluorescent dye known as Hoechst H 33258 (American Hoechst Corporation), which has an excitation maximum at 356 nm and an emission maximum of 458 when bound to DNA.
Male gerbils weighing 80-100 g were divided into 4 groups of 8 gerbils and administered the supplements depicted in Table 1: […]

CCC=CCC=CCC=CCC=CCC=CCC=CCCC(=O)O [DHA, 4,7,10,13,16,19-docosahexaenoic acid]
Phosphatidylcholine (PC) synthesis significantly increased (incorporation of 14C label into PC) ([1]; 5 μM fatty acid, 18 hr pre-incubation, then 14C-choline 2.5 hr, FIG. 1): significantly increased | Augmentation of phospholipid synthesis ([1]; different doses of DHA, FIG. 2): dose-dependent | Brain phospholipid levels ([2]; 3 weeks, Table 6): increased | Increase in levels of total phospholipids over control group ([2]; 4 weeks, gerbil brain): 12% | Total PtdCho ([2]; Table 5 part A): 185 ± 12 nmol/mg prt | Total PtdEtn ([2]; Table 5 part A): 78 ± 5 nmol/mg prt | Total PtdSer ([2]; Table 5 part A): 39 ± 3 nmol/mg prt | Total Ptdins ([2]; Table 5 part A): 32 ± 2 nmol/mg prt
